Reference: patent publication US12139520B2 (priority 2020, dated 2024)
Numbered stars: 1 amine (or outer) side, 2 acyl side, 3 side chain; on linkers, the order of the positions; unused ones are H or OH. Bridge positions count the residues as written; N and C are the ends. Square brackets hold non-standard residues; d marks the D form. Side chains are listed from the residue outwards. Peptide text beside a SMILES is read from it. * marks the point of attachment. C20 diacid = O=C(O)CCCCCCCCCCCCCCCCCCC(=O)*; γGlu = O=C(O)[C@H](CCC(=O)[*:2])N[*:1]; Hyp = O=C(O)[C@@H]1C[C@@H](O)CN1; AEEA = NCCOCCOCC(=O)O

Assays:
hAMY3 receptor = molecular target: T1, hAMY3 receptor (Homo sapiens, UniProt O60896+P30988); test: cAMP assay for in vitro receptor activation, hAMY3-R; type: cell-based; settings: cAMP assay, hAMY3 receptor; read-out: hAMY3R EC50
T1 sequence (P30988 25-474): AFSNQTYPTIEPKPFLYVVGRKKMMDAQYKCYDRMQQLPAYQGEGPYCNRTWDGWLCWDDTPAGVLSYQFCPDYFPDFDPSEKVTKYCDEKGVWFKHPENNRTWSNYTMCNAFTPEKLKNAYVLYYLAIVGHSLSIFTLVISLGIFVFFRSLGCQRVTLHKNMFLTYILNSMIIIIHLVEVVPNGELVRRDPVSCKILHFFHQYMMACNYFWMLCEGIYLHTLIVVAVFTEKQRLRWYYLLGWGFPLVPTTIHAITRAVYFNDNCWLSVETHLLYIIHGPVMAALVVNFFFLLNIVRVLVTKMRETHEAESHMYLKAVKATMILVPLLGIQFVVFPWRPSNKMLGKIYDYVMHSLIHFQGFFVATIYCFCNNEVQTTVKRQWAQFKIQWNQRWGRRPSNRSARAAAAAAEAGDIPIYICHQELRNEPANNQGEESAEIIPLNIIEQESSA
T1 sequence (O60896 24-148 partner): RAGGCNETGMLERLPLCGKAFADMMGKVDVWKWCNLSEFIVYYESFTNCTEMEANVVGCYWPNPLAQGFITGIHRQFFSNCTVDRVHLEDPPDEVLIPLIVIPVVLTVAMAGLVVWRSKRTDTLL
Method in brief: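 Accumulated cAMP was detected by time-resolved FRET one hour after reagent addition. Beforehand, hAMY3-R-overexpressing monoclonal cells (2000/well, DPBS, 0.05% casein, 0.5 mM IBMX) received graded doses of compound for 30 min at room temperature; human amylin served as positive control.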

hAM1 receptor = hAM1 receptor (Homo sapiens, UniProt O60895+Q16602); test: cAMP assay for in vitro receptor activation, hAM1-R; type: cell-based; settings: cAMP assay, hAM1 receptor; read-out: hAM1R EC50
Method in brief: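 Stable hAM1 cells (monoclonal) plated 8000/well; buffer DPBS, 0.05% casein, 0.5 mM IBMX; cAMP read-out.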

Sequence of hAM1 receptor (Q16602 23-461): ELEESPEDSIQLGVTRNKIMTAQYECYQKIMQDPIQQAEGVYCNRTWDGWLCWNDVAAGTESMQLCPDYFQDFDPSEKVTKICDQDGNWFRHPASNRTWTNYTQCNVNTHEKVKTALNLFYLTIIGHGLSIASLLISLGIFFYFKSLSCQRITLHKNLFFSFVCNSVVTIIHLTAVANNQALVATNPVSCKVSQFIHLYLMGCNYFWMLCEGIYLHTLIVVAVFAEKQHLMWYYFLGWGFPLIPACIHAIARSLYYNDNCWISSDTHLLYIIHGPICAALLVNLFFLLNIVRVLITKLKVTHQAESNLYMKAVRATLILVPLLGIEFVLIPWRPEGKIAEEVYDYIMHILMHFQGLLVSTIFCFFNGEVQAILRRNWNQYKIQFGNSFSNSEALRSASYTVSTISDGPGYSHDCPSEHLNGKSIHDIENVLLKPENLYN
Sequence of hAM1 receptor (O60895 43-175 partner): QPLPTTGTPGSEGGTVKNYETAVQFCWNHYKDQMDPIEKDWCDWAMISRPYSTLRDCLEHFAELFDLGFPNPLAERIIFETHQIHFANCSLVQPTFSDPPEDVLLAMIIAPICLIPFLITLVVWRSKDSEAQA

SMILES	EC50 (hAMY3 receptor)	EC50 (hAM1 receptor)
CC[C@H](C)[C@H](NC(=O)[C@H](CCCCN)NC(=O)[C@H](CO)NC(=O)[C@H](CCCNC(=N)N)NC(=O)[C@@H]1CCCN1C(=O)[C@H](C)NC(=O)[C@@H](NC(=O)[C@H](CC(N)=O)NC(=O)[C@H](CC(=O)O)NC(=O)[C@H](CCCCN)NC(=O)[C@H](CC(=O)O)NC(=O)[C@H](CCCCN)NC(=O)[C@H](CC(=O)O)NC(=O)[C@@H](NC(=O)[C@H](Cc1ccccc1)NC(=O)[C@H](CCC(N)=O)NC(=O)[C@H](Cc1ccc(O)cc1)NC(=O)[C@@H](NC(=O)[C@H](CCC(N)=O)NC(=O)[C@H](Cc1c[nH]cn1)NC(=O)[C@H](C)NC(=O)[C@H](CC(C)C)NC(=O)[C@H](CCCNC(=N)N)NC(=O)[C@H](CCC(N)=O)NC(=O)[C@@H](NC(=O)[C@@H](NC(=O)[C@@H]1CSSC[C@H](NC(=O)CN)C(=O)N[C@@H](CCCNC(=N)N)C(=O)N[C@@H](Cc2ccccc2)C(=O)NCC(=O)N[C@@H]([C@@H](C)O)C(=O)N1)[C@@H](C)O)C(C)C)[C@@H](C)CC)[C@@H](C)O)C(C)C)C(=O)NCC(=O)N1CCC[C@H]1C(=O)N[C@@H](CCC(N)=O)C(=O)NCC(=O)N1C[C@H](O)C[C@H]1C(N)=O [compound 127] (H-GCRFGTCTVQRLAHQIYQFTDKDKDNVAPRSKIGPQG[Hyp]-NH2; disulfide 2-7; N-terminus assumed)	0.028 nM	107 nM
CC[C@H](C)[C@H](NC(=O)[C@H](C)NC(=O)CNC(=O)[C@H](Cc1ccccc1)NC(=O)[C@H](CC(N)=O)NC(=O)[C@H](CC(N)=O)NC(=O)[C@H](CO)NC(=O)[C@H](CO)NC(=O)[C@H](Cc1c[nH]cn1)NC(=O)[C@@H](NC(=O)[C@H](CC(C)C)NC(=O)[C@H](Cc1ccccc1)NC(=O)[C@H](CC(N)=O)NC(=O)[C@H](C)NC(=O)[C@H](CC(C)C)NC(=O)[C@H](CCCNC(=N)N)NC(=O)[C@H](CCC(N)=O)NC(=O)[C@@H](NC(=O)[C@H](C)NC(=O)[C@@H]1CSSC[C@H](NC(=O)[C@@H](N)CCCCN)C(=O)N[C@@H](CC(N)=O)C(=O)N[C@@H]([C@@H](C)O)C(=O)N[C@@H](C)C(=O)N[C@@H]([C@@H](C)O)C(=O)N1)[C@@H](C)O)C(C)C)C(=O)N[C@@H](C)C(=O)N1CCC[C@H]1C(=O)N[C@@H](CO)C(=O)N[C@H](C(=O)N[C@@H](CCCCN)C(=O)N[C@H](C(=O)NCC(=O)N1CCC[C@H]1C(=O)N[C@@H](CC(N)=O)C(=O)NCC(=O)N[C@@H](Cc1ccc(O)cc1)C(N)=O)[C@@H](C)CC)[C@@H](C)O [compound 128] (H-KCNTATCATQRLANFLVHSSNNFGAIAPSTKIGPNGY-NH2; disulfide 2-7; N-terminus assumed)	0.028 nM	130 nM
CC[C@H](C)[C@H](NC(=O)[C@H](CCC(N)=O)NC(=O)[C@H](Cc1c[nH]cn1)NC(=O)[C@H](C)NC(=O)[C@H](CC(C)C)NC(=O)[C@H](CCCNC(=N)N)NC(=O)[C@H](CC(=O)O)NC(=O)[C@@H](NC(=O)[C@@H](NC(=O)[C@@H]1CSSC[C@H](NC(=O)[C@H](CCCCN)NC(=O)CC[C@H](NC(=O)CCCCCCCCCCCCCCCCCCC(=O)O)C(=O)O)C(=O)N[C@@H](CC(N)=O)C(=O)N[C@@H]([C@@H](C)O)C(=O)N[C@@H](C)C(=O)N[C@@H]([C@@H](C)O)C(=O)N1)[C@@H](C)O)C(C)C)C(=O)N[C@@H](C)C(=O)N[C@@H](CCC(N)=O)C(=O)N[C@@H](Cc1ccccc1)C(=O)N[C@H](C(=O)N[C@@H](CC(=O)O)C(=O)N[C@@H](CCCCN)C(=O)N[C@@H](CC(=O)O)C(=O)N[C@@H](CCCCN)C(=O)N[C@@H](CC(=O)O)C(=O)N1CCC[C@H]1C(=O)N[C@H](C(=O)N[C@@H](C)C(=O)N1CCC[C@H]1C(=O)N1CCC[C@H]1C(=O)N[C@H](C(=O)N[C@@H](CC(N)=O)C(=O)N[C@H](C(=O)NCC(=O)N[C@@H](CO)C(=O)N[C@@H](CC(N)=O)C(=O)NCC(=O)N1C[C@H](O)C[C@H]1C(N)=O)C(C)C)[C@@H](C)O)C(C)C)[C@@H](C)O [compound 130] ({C20 diacid-γGlu}-KCNTATCTVDRLAHQIAQFTDKDKDPVAPPTNVGSNG[Hyp]-NH2; disulfide 2-7)	0.03 nM	> 5000 nM
CC[C@H](C)[C@H](NC(=O)[C@H](CCC(N)=O)NC(=O)[C@H](CCC(=O)O)NC(=O)[C@H](C)NC(=O)[C@H](CC(C)C)NC(=O)[C@H](CCCNC(=N)N)NC(=O)[C@H](C)NC(=O)[C@@H](NC(=O)[C@@H](NC(=O)[C@@H]1CSSC[C@H](NC(=O)[C@H](CCCCN)NC(=O)CC[C@H](NC(=O)CCCCCCCCCCCCCCCCCCC(=O)O)C(=O)O)C(=O)N[C@@H](CC(N)=O)C(=O)N[C@@H]([C@@H](C)O)C(=O)N[C@@H](C)C(=O)N[C@@H]([C@@H](C)O)C(=O)N1)[C@@H](C)O)C(C)C)C(=O)N[C@@H](Cc1ccc(O)cc1)C(=O)N[C@@H](CCC(N)=O)C(=O)N[C@@H](Cc1ccccc1)C(=O)N[C@H](C(=O)N[C@@H](CC(=O)O)C(=O)N[C@@H](CCCCN)C(=O)N[C@@H](CC(=O)O)C(=O)N[C@@H](CCCCN)C(=O)N[C@@H](CC(=O)O)C(=O)N1CCC[C@H]1C(=O)N[C@H](C(=O)N[C@@H](C)C(=O)N1CCC[C@H]1C(=O)N1CCC[C@H]1C(=O)N[C@H](C(=O)N[C@@H](CC(N)=O)C(=O)N[C@H](C(=O)NCC(=O)N[C@@H](CO)C(=O)N[C@@H](CC(N)=O)C(=O)NCC(=O)N1C[C@H](O)C[C@H]1C(N)=O)C(C)C)[C@@H](C)O)C(C)C)[C@@H](C)O [compound 133] ({C20 diacid-γGlu}-KCNTATCTVARLAEQIYQFTDKDKDPVAPPTNVGSNG[Hyp]-NH2; disulfide 2-7)	0.031 nM	> 5000 nM
CC[C@H](C)[C@H](NC(=O)[C@H](CCC(N)=O)NC(=O)[C@H](CCC(=O)O)NC(=O)[C@H](C)NC(=O)[C@H](CC(C)C)NC(=O)[C@H](CCCNC(=N)N)NC(=O)[C@H](CCC(N)=O)NC(=O)[C@@H](NC(=O)[C@@H](NC(=O)[C@@H]1CSSC[C@H](NC(=O)[C@@H](N)CCCCN)C(=O)N[C@@H](CC(N)=O)C(=O)N[C@@H]([C@@H](C)O)C(=O)N[C@@H](C)C(=O)N[C@@H]([C@@H](C)O)C(=O)N1)[C@@H](C)O)C(C)C)C(=O)N[C@@H](CCCCNC(=O)COCCOCCNC(=O)COCCOCCNC(=O)CC[C@H](NC(=O)CCCCCCCCCCCCCCCCCCC(=O)O)C(=O)O)C(=O)N[C@@H](CCC(N)=O)C(=O)N[C@@H](Cc1ccccc1)C(=O)N[C@H](C(=O)N[C@@H](CC(=O)O)C(=O)N[C@@H](CCCCN)C(=O)N[C@@H](CC(=O)O)C(=O)N[C@@H](CCCCN)C(=O)N[C@@H](CC(=O)O)C(=O)N[C@@H](CC(N)=O)C(=O)N[C@H](C(=O)N[C@@H](C)C(=O)N1CCC[C@H]1C(=O)N1CCC[C@H]1C(=O)N[C@H](C(=O)N[C@@H](CC(N)=O)C(=O)N[C@H](C(=O)NCC(=O)N[C@@H](CO)C(=O)N[C@@H](CC(N)=O)C(=O)NCC(=O)N1C[C@H](O)C[C@H]1C(N)=O)C(C)C)[C@@H](C)O)C(C)C)[C@@H](C)O [compound 136] (H-KCNTATCTVQRLAEQIK([AEEA-AEEA-γGlu-C20 diacid])QFTDKDKDNVAPPTNVGSNG[Hyp]-NH2; disulfide 2-7; N-terminus assumed)	0.033 nM	> 5000 nM
